Laboratory results reported in PMC8445441, “Elucidating the mechanism by which synthetic helper peptides sensitize Pseudomonas aeruginosa to multiple antibiotics” (PLoS Pathogens, 2021).
Values joined by “and” are separate entries in the source; they are usually repeats but may differ in a detail not shown here. Equal entries are not always repeated. Where two headings read alike, the source gives them in different places. Positions of bridges follow the written chain, without caps; N, C: chain ends. Non-standard residues stand in square brackets, D forms with d. Residues, ends and D or L forms follow the SMILES beside them. *: point of attachment. Ileψ(thiazoline)Cys = CC[C@H](C)[C@H](N)C1=N[C@H](C(=O)*)CS1; dOrn = NCCC[C@@H](N)C(=O)O

How the values were obtained:
[1] = test system: P. aeruginosa PAO1; assay: microbe, parasite or virus in culture; details: for MIC: Pseudomonas aeruginosa, PAO1, 18 h
Protocol: (§1) The MIC tests were performed in triplicate using broth microdilution in accordance with Clinical and Laboratory Standards Institute (CLSI) recommendations (http://iacld.ir/DL/public/CLSI-2018-M100-S28.pdf). Briefly, drugs were two-fold diluted in MHB and mixed with an equal volume of bacterial suspensions containing approximately 1 × 10^6 CFU/mL in 96-well microliter plate. After 18 h incubation at 37 °C, the MIC values were defined as the lowest concentrations of antibiotics with no visible growth of bacteria. […] Otherwise, 1/4 MIC of the peptide was used in the combination. […] If needed, membrane compounds PG, PE, PC, CL or LPS, or membrane stabilizers MgCl2 or CaCl2, or efflux pumps inhibitor PAβN were added to the broth medium to clarify the effect of other substances on the synergy between peptide and antibiotics. All the tests were performed in triplicate.
The fractional inhibitory concentration (FIC) indices were calculated using the previously described formula FICI = FICa + FICb = MICac/MICa + MICbc/MICb. The FICI was interpreted according to EUCAST [65] as follows: synergistic, FICI≤0.5; additive, 0.5<FICI≤1; indifferent, 1<FICI<2; antagonistic, FICI ≥2. For the FICI calculations, twice the highest concentration tested was used in the cases where the MIC was not reached.

[2] = test system: clinical P. aeruginosa isolates; assay: microbe, parasite or virus in culture; details: for Antibiotic sensibility (MIC) of clinical P. aeruginosa isolate AUMC-Pa-1: strain AUMC-Pa-1; for Antibiotic sensibility (MIC) of clinical P. aeruginosa isolate AUMC-Pa-2: strain AUMC-Pa-2; for Antibiotic sensibility (MIC) of clinical P. aeruginosa isolate AUMC-Pa-3: strain AUMC-Pa-3; for Antibiotic sensibility (MIC) of clinical P. aeruginosa isolate AUMC-Pa-4: strain AUMC-Pa-4; for Antibiotic sensibility (MIC) of clinical P. aeruginosa isolate AUMC-Pa-5: strain AUMC-Pa-5; for Antibiotic sensibility (MIC) of clinical P. aeruginosa isolate AUMC-Pa-6: strain AUMC-Pa-6; for Antibiotic sensibility (MIC) of clinical P. aeruginosa isolate HM-214: strain HM-214; for Antibiotic sensibility (MIC) of clinical P. aeruginosa isolate NR-31040: strain NR-31040; for Antibiotic sensibility (MIC) of clinical P. aeruginosa isolate NR-31041: strain NR-31041; for MIC: Pseudomonas aeruginosa, 18 h
Protocol: The bacterial strains, primers and plasmids used in this study are listed in S5 Table. […] Bacteria were cultured in LB medium or cation-adjusted Muller-Hinton broth (CA-MHB) at 37 °C with agitation at 220 rpm. All the antibiotics and chemical compounds used in this study were purchased from Sigma-Aldrich.
as §1

[3] = S3 Table, PAO1, antibiotic + 2 μM D-11
[4] = S3 Table, PAO1, antibiotic + 4 μM D-11
[5] = S3 Table, antibiotic alone, PAO1
[6] = read-out: Antibiotic sensibility (MIC) of clinical P. aeruginosa isolate AUMC-Pa-1, strain AUMC-Pa-1, antibiotic alone
[7] = read-out: Antibiotic sensibility (MIC) of clinical P. aeruginosa isolate AUMC-Pa-2, strain AUMC-Pa-2, antibiotic alone
[8] = read-out: Antibiotic sensibility (MIC) of clinical P. aeruginosa isolate AUMC-Pa-3, strain AUMC-Pa-3, antibiotic alone
[9] = read-out: Antibiotic sensibility (MIC) of clinical P. aeruginosa isolate AUMC-Pa-4, strain AUMC-Pa-4, antibiotic alone
[10] = read-out: Antibiotic sensibility (MIC) of clinical P. aeruginosa isolate AUMC-Pa-5, strain AUMC-Pa-5, antibiotic alone
[11] = read-out: Antibiotic sensibility (MIC) of clinical P. aeruginosa isolate AUMC-Pa-6, strain AUMC-Pa-6, antibiotic alone
[12] = read-out: Antibiotic sensibility (MIC) of clinical P. aeruginosa isolate HM-214, strain HM-214, antibiotic alone
[13] = read-out: Antibiotic sensibility (MIC) of clinical P. aeruginosa isolate NR-31040, strain NR-31040, antibiotic alone
[14] = read-out: Antibiotic sensibility (MIC) of clinical P. aeruginosa isolate NR-31041, strain NR-31041, antibiotic alone
[15] = read-out: MICa: the MIC of antibiotics
[16] = read-out: Antibiotic sensibility (MIC) of clinical P. aeruginosa isolate AUMC-Pa-1
[17] = read-out: Antibiotic sensibility (MIC) of clinical P. aeruginosa isolate AUMC-Pa-2
[18] = read-out: Antibiotic sensibility (MIC) of clinical P. aeruginosa isolate AUMC-Pa-3
[19] = read-out: Antibiotic sensibility (MIC) of clinical P. aeruginosa isolate AUMC-Pa-4
[20] = read-out: Antibiotic sensibility (MIC) of clinical P. aeruginosa isolate AUMC-Pa-5
[21] = read-out: Antibiotic sensibility (MIC) of clinical P. aeruginosa isolate AUMC-Pa-6
[22] = read-out: Antibiotic sensibility (MIC) of clinical P. aeruginosa isolate HM-214
[23] = read-out: Antibiotic sensibility (MIC) of clinical P. aeruginosa isolate NR-31040
[24] = read-out: Antibiotic sensibility (MIC) of clinical P. aeruginosa isolate NR-31041

Compound	FICI [1, 3]	FICI [1, 4]	MICac: the MIC for the antibiotic in the combination ([1]; S3 Table, PAO1, with 2 μM D-11)	MICac: the MIC for the antibiotic in the combination ([1]; S3 Table, PAO1, with 4 μM D-11)	MICa: the MIC of antibiotics [1, 5]	MIC [2, 6]	MIC [2, 7]	MIC [2, 8]	MIC [2, 9]	MIC [2, 10]	MIC [2, 11]	MIC [2, 12]	MIC [2, 13]	MIC [2, 14]	further results
CC[C@H](C)[C@H](N)C1=N[C@H](C(=O)N[C@@H](CC(C)C)C(=O)N[C@H](CCC(=O)O)C(=O)N[C@H](C(=O)N[C@H]2CCCCNC(=O)[C@H](CC(N)=O)NC(=O)[C@@H](CC(=O)O)NC(=O)[C@H](Cc3cnc[nH]3)NC(=O)[C@@H](Cc3ccccc3)NC(=O)[C@H]([C@@H](C)CC)NC(=O)[C@@H](CCCN)NC2=O)[C@@H](C)CC)CS1 [Bacitracin] ({Ileψ(thiazoline)Cys}-L[dE]IK[dOrn]I[dF]H[dD]N; lactam 4-C (inferred); N-terminus assumed)	1.063	1.125	>128/>128 μM	>128/>128 μM	>128/>128 μM	–	–	–	–	–	–	–	–	–	Antibiotic sensibility (MIC) of clinical P. aeruginosa isolate AUMC-Pa-1 ([2]; antibiotic alone): >128 µM; Antibiotic sensibility (MIC) of clinical P. aeruginosa isolate AUMC-Pa-2 ([2]; antibiotic alone): >128 µM; Antibiotic sensibility (MIC) of clinical P. aeruginosa isolate AUMC-Pa-3 ([2]; antibiotic alone): >128 µM; Antibiotic sensibility (MIC) of clinical P. aeruginosa isolate AUMC-Pa-4 ([2]; antibiotic alone): >128 µM; Antibiotic sensibility (MIC) of clinical P. aeruginosa isolate AUMC-Pa-5 ([2]; antibiotic alone): >128 µM; Antibiotic sensibility (MIC) of clinical P. aeruginosa isolate AUMC-Pa-6 ([2]; antibiotic alone): >128 µM; Antibiotic sensibility (MIC) of clinical P. aeruginosa isolate HM-214 ([2]; antibiotic alone): >128 µM; Antibiotic sensibility (MIC) of clinical P. aeruginosa isolate NR-31040 ([2]; antibiotic alone): >128 µM; Antibiotic sensibility (MIC) of clinical P. aeruginosa isolate NR-31041 ([2]; antibiotic alone): >128 µM
CO/N=C(\C(=O)N[C@@H]1C(=O)N2C(C(=O)[O-])=C(C[N+]3(C)CCCC3)CS[C@H]12)c1csc(N)n1 [Cefepime]	0.563	0.625	1 µM	1 µM	2 µM	8 µM	0.5 µM	2 µM	2 µM	4 µM	4 µM	128 µM	4 µM	16 µM	–
CCCCc1ccc(C(=O)O)nc1 [Fusaric Acid]	1.063	1.125	>128/>128 μM	>128/>128 μM	–	–	–	–	–	–	–	–	–	–	MIC [1, 15]: > 128 µM; MIC [2, 16]: > 128 µM; MIC [2, 17]: > 128 µM; MIC [2, 18]: > 128 µM; MIC [2, 19]: > 128 µM; MIC [2, 20]: > 128 µM; MIC [2, 21]: > 128 µM; MIC [2, 22]: > 128 µM; MIC [2, 23]: > 128 µM; MIC [2, 24]: > 128 µM
CNC(C)C1CCC(N)C(OC2C(N)CC(N)C(OC3OCC(C)(O)C(NC)C3O)C2O)O1 (centres unmarked) [Gentamicin]	2.063	2.125	2 µM	2 µM	1 µM	0.5 µM	0.25 µM	0.0625 µM	0.5 µM	0.5 µM	2 µM	1 µM	32 µM	32 µM	–
NC[C@H]1O[C@H](O[C@H]2[C@H](O)[C@@H](O[C@H]3O[C@H](CO)[C@@H](O)[C@H](N)[C@H]3O)[C@H](N)C[C@@H]2N)[C@H](O)[C@@H](O)[C@@H]1O [Kanamycin]	2.063	2.125	128 µM	128 µM	64 µM	–	–	–	–	–	–	–	–	–	Antibiotic sensibility (MIC) of clinical P. aeruginosa isolate AUMC-Pa-1 ([2]; antibiotic alone): 64 µM; Antibiotic sensibility (MIC) of clinical P. aeruginosa isolate AUMC-Pa-2 ([2]; antibiotic alone): 16 µM; Antibiotic sensibility (MIC) of clinical P. aeruginosa isolate AUMC-Pa-3 ([2]; antibiotic alone): 32 µM; Antibiotic sensibility (MIC) of clinical P. aeruginosa isolate AUMC-Pa-4 ([2]; antibiotic alone): 32 µM; Antibiotic sensibility (MIC) of clinical P. aeruginosa isolate AUMC-Pa-5 ([2]; antibiotic alone): 32 µM; Antibiotic sensibility (MIC) of clinical P. aeruginosa isolate AUMC-Pa-6 ([2]; antibiotic alone): 32 µM; Antibiotic sensibility (MIC) of clinical P. aeruginosa isolate HM-214 ([2]; antibiotic alone): 128 µM; Antibiotic sensibility (MIC) of clinical P. aeruginosa isolate NR-31040 ([2]; antibiotic alone): 128 µM; Antibiotic sensibility (MIC) of clinical P. aeruginosa isolate NR-31041 ([2]; antibiotic alone): 128 µM
CC(=O)NC[C@H]1CN(c2ccc(N3CCOCC3)c(F)c2)C(=O)O1 [Linezolid]	1.063	1.125	>128/>128 μM	>128/>128 μM	–	> 128 µM	> 128 µM	> 128 µM	> 128 µM	> 128 µM	> 128 µM	> 128 µM	> 128 µM	> 128 µM	MIC ([1]; read-out: MICa: the MIC of antibiotics, S3 Table, antibiotic alone, PAO1): > 128 µM
CN(C)C(=O)C(CCN1CCC(O)(c2ccc(Cl)cc2)CC1)(c1ccccc1)c1ccccc1 [Loperamide]	–	–	–	–	–	–	–	–	–	–	–	–	–	–	FICI [1]: 1.063 and 1.125; MICac: the MIC for the antibiotic in the combination [1]: >128/>128 μM; MIC [1, 15]: > 128 µM; MIC [2, 16]: > 128 µM; MIC [2, 17]: > 128 µM; MIC [2, 18]: > 128 µM; MIC [2, 19]: > 128 µM; MIC [2, 20]: > 128 µM; MIC [2, 21]: > 128 µM; MIC [2, 22]: > 128 µM; MIC [2, 23]: > 128 µM; MIC [2, 24]: > 128 µM
[H]/N=C(/N)N[C@H]1[C@H](O)[C@@H](O)[C@H](O[C@@H]2O[C@@H](C)[C@](O)(C=O)[C@H]2O[C@@H]2O[C@@H](CO)[C@H](O)[C@@H](O)[C@@H]2NC)[C@@H](N/C(N)=N\[H])[C@@H]1O [Streptomycin]	1.063	1.125	64/64 μM	64/64 μM	64/64 μM	16 µM	8 µM	128 µM	8 µM	8 µM	16 µM	128 µM	> 128 µM	> 128 µM	–
